From patent publication US9617517B2, “Small chemical compound which promotes induction of differentiation of stem cells into insulin-producing cells and method for inducing differentiation of stem cells into insulin-producing cells using said small chemical compound” (NATIONAL UNIVERSITY CORPORATION KUMAMOTO UNIVERSITY, priority 2011, dated 2017)
Entries after “also recorded” stand apart in the source; their conditions may differ.

Tests used:
Drd2KD cells = experiment: Differentiation into insulin-producing cells in dopamine D2 receptor knock-down cell line; type: cell-based, mouse; conditions: 0.63 μM reserpine, Drd2KD cells (FIG. 9B)
Experimental: In the Vmat2-knockdown and Drd2-knockdown assays, Expression Arrest non-silencing control shRNA (Open Biosystems, #RHS4080), Vmat2 hRNA (Open Biosystems, #RMM3981-97058457 and #RMM3981-97058458) or Drd2 hRNA (Open Biosystems, #RMM3981-9594258) lentiviral vectors were used. For virus preparation, HEK293-FT cells (Invitrogen) were seeded on a plate medium the day before transfection. After overnight culture, the cells were transfected with lentiviral vectors and ViraPower™ Lentiviral Packaging Mix (Invitrogen) using FuGENE6 Transfection Reagent (Roche) according to the manufacturer's protocol. Cells were incubated in the ES maintenance medium for 24 hours, and viral supernatants were collected. Then, SK7 cells were infected with the viral supernatants. After incubation for 24 hours, the virus-containing medium was replaced with fresh ES maintenance medium. Further 24 hours later, the infected cells were selected using […] puromycin. The surviving cells were cloned as a knockdown-cell lines.
To confirm that a dopamine signal suppresses the differentiation into insulin-expressing cells through activation of its receptor, a dopamine D2 receptor knock-down cell line, Drd2KD was established (FIG. 9A).

[1] = test system: mouse ES cells (Pdx1/GFP); experiment: Differentiation of mouse ES cells into insulin positive cells on nano fiber plate, immunostaining and quantitative image analysis; type: cell-based; conditions: for effect on differentiation into insulin-expressing cells: compound added d11-d17, insulin staining d17 (FIG. 4, 5, 7, 8, 10)
Excerpt: Two ES cell lines, one expressing green fluorescent protein (GFP) under the control of insulin 1 promoter, designed ING (Higuchi Y., Shiraki N., Yamane K, Qin Z., Mochitate K., Araki K., Senokuchi K., Yamagata K., Hara M., Kume K., and Kume S., Synthesized basement membranes direct the differentiation of mouse embryonic stem cells into pancreatic lineages. J. Cell Science, 123, 2733-2742, 2010), and the other one expressing GFP under the control of Pdx1 promoter, designated SK7 (Shiraki N, Yoshida T, Araki K, et al. Guided differentiation of embryonic stem cells into Pdx1-expressing regional-specific definitive endoderm. Stem Cells. 2008; 26:874-885), were used. Both cell lines were maintained on mouse embryonic fibroblast (MEF) feeders in Glasgow minimum essential medium (Invitrogen) containing 1000 units/ml leukemia inhibitory factor (LIF; Chemicon), 15% Knocked-out Serum Replacement (KSR; Gibco), 1% fetal bovine serum (FBS; Hyclone), 100 μM nonessential amino acids (NEAA; Invitrogen), 2 mM L-glutamine (L-Gln; Invitrogen), 1 mM sodium pyruvate (Invitrogen), 50 units/ml penicillin and 50 μg/ml streptomycin (PS; Invitrogen) and 100 μM β-mercaptoethanol (β-ME; Sigma), as ES maintenance medium.
For the differentiation studies, ES cells were plated at 5,000 cells per well in Corning 96 well plate with Ultra-Web Synthetic Polyamine Surface (#3873XX1, Corning Coster, Cambridge, Miss.), and cultured. The cells were cultured in Dulbecco's Modified Eagle Medium (DMEM: Invitrogen, Glasgow, UK) containing 4500 mg/L glucose, supplemented with NEAA, L-Gln, PS, β-ME, 10 μg/ml insulin (Sigma-Aldrich), 5.5 μg/ml transferrin (Sigma-Aldrich), 6.7 pg/ml selenium (Sigma-Aldrich), and 0.25% Albmax (Invitrogen), 10 ng/mL recombinant human activin-A (R&D Systems, Minneapolis, Minn.), 5 ng/mL; recombinant human bFGF for 7 days (d1-d7) (I of FIG. 1). And then, the medium was changed to RPMI 1640 medium (Invitrogen) containing 2000 mg/L glucose (Sigma, St Louis, Mo.), 1 μM Retinoic acid (Sigma-Aldrich), 50 ng/ml Human Recombinant Fibroblast Growth Factor-10 (Peprotech, Rocky Hill, N.J.), B27 SUPPLEMENT (Invitrogen) and 0.25 μM 3-Keto-N-(aminoethyl-aminocaproyl-dihydrocinnamoyl) cyclopamine Shh Signaling Antagonist II (Calbiochem, San Diego, Calif.) on d7 to d11 (II of FIG. 1). Finally, the medium was switched to DMEM containing 1000 mg/L glucose supplemented with NEAA, L-Gln, PS, β-ME, 10 μg/ml insulin (Sigma-Aldrich), 5.5 μg/ml transferrin (Sigma-Aldrich), 6.7 pg/ml selenium (Sigma-Aldrich), 0.25% Albmax (Invitrogen) and 10 mM nicotinamide (Sigma-Aldrich) on d11 to d17 (III of FIG. 1). Media were replaced every 2 days with fresh medium and growth factors until d17.
All tested small chemical compounds were solved in dimethyl sulfoxide (DMSO) at given concentration. Compounds were added on d11, d13 and d15 in a medium. Final concentration of DMSO was adjusted at 1.0% in all experiments for compounds.
After 17 days cell culture, cultured ES cells were fixed in 4% paraformaldehyde in PBS for 30 min at room temperature, and rinsed several times with PBS. Then, cells were incubated in the added diluted primary antibody in 20% Blocking One (Nacalai tesque, Tokyo, Japan) in PEST (0.1% Tween-20 in PBS) in a humidified chamber for overnight at 4° C. After washing the cells in PBST, cells were incubated with the secondary antibody in 20% Blocking One for 2 hr at room temperature in dark. After washing off the secondary antibody in PBST, cells were counterstained with […] (DAPI) (Roche Diagnostics). The following antibodies were used as First antibodies: Rabbit anti-GFP (MBL International Corp., Woburn, Mass.), Mouse anti-Insulin (Sigma). The following antibodies were used as Secondary antibodies: Alexa 568-conjugated, Alexa 488-conjugated antibodies (Invitrogen) Cells were counterstained with DAPI (Roche Diagnotics, Basel, Switzerland).

Ngn3/GFP mouse ES cells = experiment: Ngn3 positive cell inducing rate; type: cell-based
Experimental: The influence exerted on the Ngn3 positive cell inducing rate by addition of TBZ (2.5 μM) or dBu-cAMP (0.6 μM) was confirmed. FIG. 16A is a view schematically showing the addition periods of TBZ or dBu-cAMP, and the addition periods are a) on days 9 to 11 of culture, b) on days 11 to 13 of culture, and c) on days 9 to 13 of culture.
First, the compound was not added or TBZ was added on days 9 to 13 of culture (period c), and visible light photographs and fluorescence of Ngn3/GFP mouse ES cells were observed on day 13 of culture. The left one is a visible light photograph and the right one is fluorescence.
Next, the compound was not added, or TBZ or dBu-cAMP was added under the above-described conditions a), b) and c), and the proportion of GFP positive cells on day 13 of culture was checked. The ratios of the proportions of GFP positive cells and Ngn3 positive cells when the ratio in the case of no addition is 1 are shown in FIG. 16C. […] The order of intensity of the effect was a), c), b) in descending order.

differentiated ES cells [2] = experiment: Secreted insulin and cellular insulin content by mouse c-peptide ELISA; type: cell-based; conditions: TBZ 2.5 μM, dBu-cAMP 0.6 μM, day 11 to 17; sorted GFP positive cells day 17 (FIG. 18D)
differentiated ES cells [3] = experiment: Real time PCR of gene expression in differentiated ES cells; type: cell-based, mouse; conditions: TBZ 2.5 μM

| SMILES | promotion of differentiation into insulin-producing cells (Drd2KD cells) | hit confirmed by dose-responsiveness ([1]; 0.08 to 10 μM, SK7 ES cells) | effect on differentiation into insulin-expressing cells [1] | effect on differentiation into insulin-expressing cells ([1]; listed as reserpine) | concentration of maximum effect on insulin positive cells ([1]; concentration-dependent test at 0 to 10 μM (FIG. 4)) | effect on Pdx1 positive pancreatic precursor cells ([1]; reserpine 0.63 μM, Pargyline 1 μM (FIG. 6, 7)) | Ngn3 positive cells (fluorescence) (Ngn3/GFP mouse ES cells; TBZ 2.5 μM on days 9 to 13, observed day 13 (FIG. 16B)) | number of GFP positive cells (Ngn3/GFP mouse ES cells; TBZ 2.5 μM or dBu-cAMP 0.6 μM, addition days 9-11, 11-13 or 9-13, day 13 (FIG. 16C)) | C-peptide content of GFP positive cells (differentiated ES cells [2]) | expression of Abcc8 (differentiated ES cells [3]; dBu-cAMP 0.6 μM (FIG. 13)) | expression of Glut2 (differentiated ES cells [3]; dBu-cAMP 0.6 μM (FIG. 13)) | expression of MafA (differentiated ES cells [3]; dBu-cAMP 0.6 μM (FIG. 13)) | expression of Stx1 (differentiated ES cells [3]; dBu-cAMP 0.6 μM (FIG. 13)) | expression level of MafA, time course (differentiated ES cells [3]; dBu-cAMP 0.6 μM from day 11, after day 13 (FIG. 15)) | expression level of Nkx6.1 (differentiated ES cells [3]; dBu-cAMP 0.6 μM from day 11, after day 15 (FIG. 15)) | expression level of Ngn3 (differentiated ES cells [3]; dBu-cAMP 0.6 μM from day 11, day 13 and day 15 (FIG. 15)) | expression level of Insulin1 (differentiated ES cells [3]; dBu-cAMP 0.6 μM from day 11, single after day 13, both after day 15 (FIG. 15)) |
| --- | --- | --- | --- | --- | --- | --- | --- | --- | --- | --- | --- | --- | --- | --- | --- | --- | --- |
| COC(=O)[C@H]1[C@H]2C[C@@H]3c4[nH]c5cc(OC)ccc5c4CCN3C[C@H]2C[C@@H](OC(=O)c2cc(OC)c(OC)c(OC)c2)[C@@H]1OC [Reserpine, reserpine] | did not promote differentiation | positive | enhanced insulin-positive staining; also recorded: increased insulin-producing cells | concentration-dependent effect was observed | 0.63 µM | did not change the number of pancreatic precursor cells | – | – | – | – | – | – | – | – | – | – | – |
| COc1cc2c(cc1OC)C1CC(=O)C(CC(C)C)CN1CC2 (stereo not drawn) [Tetrabenazine, tetrabenazine] | – | – | promoted the differentiation into insulin-expressing cells | – | – | – | increase of Ngn3 positive cells | increased in all conditions | increased | did not increase | did not increase | increased slightly | increased slightly | promoted | strongly promoted | increased remarkably | promoted |
